Experiments:
Assay in all cases: relative viability (nuclei count vs DMSO), 5 days (fraction); higher = more cells survive
XMD14-99 + Lapatinib = compound: CN1CCN(CC1)C2=CC(=C(C=C2)NC3=NC(=C(S3)C(=O)C4=C(C=CC=C4Cl)Cl)N)OC [XMD14-99] + CS(=O)(=O)CCNCc1ccc(-c2ccc3ncnc(Nc4ccc(OCc5cccc(F)c5)c(Cl)c4)c3c2)o1 [Lapatinib] (partner 2 µM)
Outline: (§1)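 Relative viability equals treated-well nuclei counts divided by vehicle-well nuclei counts. Counts came from 4× images of lung cancer cell lines grown in 1536-well plates for 5 days after pin-tool dosing on the day after seeding. Dosing used one drug alone or a fixed anchor-drug dose plus five library-drug doses (not always all listed) in √10 steps, and values are medians of duplicate plates.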

XMD14-99 + Navitoclax = compound: CN1CCN(CC1)C2=CC(=C(C=C2)NC3=NC(=C(S3)C(=O)C4=C(C=CC=C4Cl)Cl)N)OC [XMD14-99] + CC1(C)CCC(c2ccc(Cl)cc2)=C(CN2CCN(c3ccc(C(=O)NS(=O)(=O)c4ccc(N[C@H](CCN5CCOCC5)CSc5ccccc5)c(S(=O)(=O)C(F)(F)F)c4)cc3)CC2)C1 [Navitoclax] (partner 0.5 µM)
Outline: as §1

AZD1208 + Luminespib = compound: N[C@@H]1CCCN(c2c(/C=C3\SC(=O)NC3=O)cccc2-c2ccccc2)C1 [AZD1208] + CCNC(=O)c1noc(-c2cc(C(C)C)c(O)cc2O)c1-c1ccc(CN2CCOCC2)cc1 [Luminespib] (partner 0.01 µM)
Outline: as §1

AZD1208 + Dasatinib = compound: N[C@@H]1CCCN(c2c(/C=C3\SC(=O)NC3=O)cccc2-c2ccccc2)C1 [AZD1208] + Cc1nc(Nc2ncc(C(=O)Nc3c(C)cccc3Cl)s2)cc(N2CCN(CCO)CC2)n1 [Dasatinib] (partner 0.075 µM)
Outline: as §1

Cell Line	relative viability (XMD14-99 + Lapatinib; first compound 0.08 µM)	relative viability (XMD14-99 + Lapatinib; first compound 0.8 µM)	relative viability (XMD14-99 + Lapatinib; first compound 2.53 µM)	relative viability (XMD14-99 + Lapatinib; first compound 8 µM)	relative viability (XMD14-99 + Navitoclax; first compound 0.08 µM)	relative viability (XMD14-99 + Navitoclax; first compound 0.8 µM)	relative viability (XMD14-99 + Navitoclax; first compound 2.53 µM)	relative viability (XMD14-99 + Navitoclax; first compound 8 µM)	relative viability (AZD1208 + Luminespib; first compound 0.08 µM)	relative viability (AZD1208 + Luminespib; first compound 0.253 µM)	relative viability (AZD1208 + Luminespib; first compound 0.8 µM)	relative viability (AZD1208 + Luminespib; first compound 2.53 µM)	relative viability (AZD1208 + Luminespib; first compound 8 µM)	relative viability (AZD1208 + Dasatinib; first compound 0.08 µM)	relative viability (AZD1208 + Dasatinib; first compound 0.253 µM)	relative viability (AZD1208 + Dasatinib; first compound 0.8 µM)	relative viability (AZD1208 + Dasatinib; first compound 2.53 µM)	relative viability (AZD1208 + Dasatinib; first compound 8 µM)
NCI-H1975	0.906	0.938	0.801	0.727	1.05	1.07	1.14	1.08	0.235	0.296	0.2	0.228	0.18	0.388	0.363	0.36	0.361	0.381
CAL-12T	0.603	0.549	0.545	0.547	1.28	1.14	1.21	1.16	0.363	0.527	0.185	0.434	0.258	0.316	0.393	0.329	0.48	0.464
NCI-H1623	–	–	–	–	–	–	–	–	0.444	0.393	0.365	0.324	0.372	0.633	0.514	0.484	0.438	0.632
HCC-44	1.12	0.951	1.09	0.861	1.07	0.888	0.935	0.9	0.996	1.1	0.963	1.04	1.04	–	–	–	–	–
EKVX	0.187	0.18	0.193	0.163	0.96	0.982	0.841	0.66	0.981	0.845	0.888	0.804	0.924	0.637	0.245	0.51	0.498	0.48
NCI-H1651	0.779	0.823	0.79	0.705	0.982	1.04	0.933	0.943	0.902	0.977	0.848	0.795	0.568	0.406	0.461	0.38	0.319	0.307
NCI-H1944	0.748	0.828	0.843	0.613	1.1	1.04	1.01	0.919	0.765	0.711	0.548	0.557	0.346	0.196	0.178	0.175	0.193	0.16
NCI-H1703	0.9	0.976	0.972	0.793	1.06	1.11	0.933	0.719	–	–	–	–	–	–	–	–	–	–
Calu-6	0.996	0.934	0.936	0.735	0.772	0.802	0.726	0.473	–	–	–	–	–	–	–	–	–	–
EBC-1	0.252	0.207	0.2	0.173	0.37	0.384	0.415	0.219	–	–	–	–	–	–	–	–	–	–
A-427	1.14	0.984	0.999	0.898	0.894	0.954	0.779	0.807	0.788	1	0.829	0.762	0.712	0.553	0.644	0.531	0.659	0.431
NCI-H2405	1.1	1.16	0.971	0.778	0.825	1.05	0.877	0.436	0.652	0.464	0.47	0.455	0.517	0.205	0.198	0.202	0.21	0.184
NCI-H1355	1.03	0.958	1.01	0.61	0.87	0.863	0.782	0.778	0.708	0.598	0.611	0.699	0.525	0.732	0.55	0.628	0.641	0.48
NCI-H358	0.45	0.45	0.317	0.231	–	–	–	–	0.38	0.307	0.514	0.319	0.122	0.138	0.142	0.139	0.116	0.142
RERF-LC-KJ	0.849	0.837	0.799	0.829	1.01	0.829	0.926	0.607	1.13	1.22	1.14	1.07	0.838	0.685	0.608	0.546	0.595	0.483
NCI-H23	1.08	1.29	1.14	0.881	0.782	0.874	0.744	0.748	0.238	0.218	–	0.202	0.24	0.641	0.887	0.668	0.714	0.614
HOP-62	1.22	1.06	0.946	0.819	1.12	1.16	1.03	0.951	0.918	1.07	0.904	0.916	0.956	0.679	0.712	0.541	0.572	0.647

— the supplement of paper PMC10307832
